Experimental data from patent US5952307A, “Basic α-aminoalkylphosphonate derivatives” (priority 1997, dated 1999).
Where two headings read alike, the source gives them in different places.

Experiments:
Format in all cases: biochemical
bovine trypsin [1] = target: T1, bovine trypsin (Bos taurus, UniProt P00760); assay: Inactivation rate of bovine trypsin, incubation method; settings: Table II; 0.13 μM trypsin, 0.25-42 μM inhibitor, 80 mM Hepes pH 7.5, 1 mM CaCl2, 8% DMSO, 25° C.; NI = no inhibition
T1 sequence (P00760 24-246): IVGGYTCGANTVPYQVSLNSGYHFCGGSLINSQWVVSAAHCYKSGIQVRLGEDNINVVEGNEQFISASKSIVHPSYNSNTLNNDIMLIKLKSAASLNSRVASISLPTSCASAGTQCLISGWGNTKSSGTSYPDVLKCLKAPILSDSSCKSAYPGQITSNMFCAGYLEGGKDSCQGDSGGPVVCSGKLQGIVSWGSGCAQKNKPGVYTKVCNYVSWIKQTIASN
Method in brief: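 Incubation method: trypsin pre-incubated with inhibitor (0.25-42 μM) at 25° C in 80 mM Hepes, 1 mM CaCl2, pH 7.5, 8% DMSO; aliquots withdrawn over time for residual activity on Z-Arg-SBzl thioester with DTNB or 4,4'-dithiodipyridine. Pseudo-first-order kobs from ln vt/vo versus time.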

human thrombin = target: T2, human thrombin (Homo sapiens, UniProt P00734); settings: 25° C., NI = no inhibition
T2 construct: bovine trypsin, human thrombin
Method in brief: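 Irreversible inactivation followed by incubation method at 25 °C: 0.07 μM thrombin with 0.25–42 μM inhibitor in 80 mM Hepes pH 7.5, 428 mM NaCl, 8% DMSO. Residual activity of withdrawn aliquots measured with thioester or 4-nitroanilide substrates; kobs from pseudo-first-order fits.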

factor Xa = target: T3, factor Xa (Homo sapiens, UniProt P00742); assay: Inactivation rate of factor Xa, incubation method; settings: Table II; 0.42 μM factor Xa, 66 μM inhibitor, 80 mM Hepes pH 7.5, 428 mM NaCl, 8% DMSO, 25° C.
T3 construct: human thrombin, factor Xa, plasmin
Description: (§1) Inactivation rates of serine proteases by aryl diesters of peptidyl derivatives of α-aminoalkylphosphonates were measured by the incubation method. An aliquot of inhibitor (25 or 50 μl) in Me2 SO was added to a buffered enzyme solution (0.01-2.3 μM) to initiate the inactivation. Aliquots (50 μl) were withdrawn at various intervals and the residual enzymatic activity was measured. Me2 SO concentration in the reaction mixture was 8-12% (v/v). A 0.1 M HEPES, 0.01 M CaCl2, pH 7.5 buffer was utilized for trypsin and trypsin-like enzymes. A 0.1 M HEPES, 0.5 M NaCl, pH 7.5, was utilized for the other serine proteases. Peptide thioesters or peptide nitroanilides with the appropriate sequences were used as substrates for various serine proteases. All peptide thioesters hydrolysis rates were measured with the assay mixture containing 4,4'-dithiodipyridine {ε324 =19800 M^-1 cm^-1; Grasetti & Murray, Arch. Biochem. Biophys. 1967, 119, 41-48}. Peptide 4-nitroanilide hydrolysis was measured at 410 nm {ε410 =8800 M^-1 cm^-1; Erlanger et al., Arch. Biochem. Biophys. 1961, 95, 271-278}. First order inactivation rate constants (Kobs) were obtained from plots of In vt /vo vs time, and the correlation coefficients were greater then 0.98.
^a Enzyme was incubated with the inhibitor in 250 μL of the proper
NaCl, 0.8 mM Mes, 9% glycerol and 8% DMSO; 0.42 μM factor Xa, 66 μM
inhibitor in an 80 mM Hepes, pH 7.5 buffer containing 428 mM NaCl and 8%
DMSO. Aliquots of 25 μL were withdrawn at various intervals and the
(§2) residual enzymatic activity was measured as described in experimental
(§3) section. The kobs values were calculated from pseudofirst-order

urokinase = urokinase (Homo sapiens, UniProt P00749); assay: Inactivation rate of urokinase, incubation method; settings: Table III; enzyme 0.06-0.5 μM, inhibitor 0.25-42 μM, 9% DMSO, 25° C.; NI = no inhibition
Description: as §1
(§4) ^a Enzyme (0.06-0.5 μM) was incubated with the inhibitor (0.25-42
(§5) μM) in 250 μL of the proper buffer containing 9% DMSO at 25°
(§6) C. The final inhibition reaction mixtures are given in the footnote to
(§7) Table 1. Aliquots of 25 μL were withdrawn at various intervals and the
as §2, §3

plasmin = target: T4, plasmin (Homo sapiens, UniProt P00747); assay: Inactivation rate of plasmin, incubation method; settings: Table III; for kobs /[I] plasmin: enzyme 0.06-0.5 μM, inhibitor 0.25-42 μM, 9% DMSO, 25° C., NI = no inhibition
T4 construct: factor Xa, plasmin, and urokinase
Description: as §1, §4, §5, §6, §7, §2, §3
^b Inhibitor concentration of 0.24 mM.

bovine trypsin [2] = target: T1, bovine trypsin; assay: Inactivation rate of bovine trypsin, incubation method; settings: Table III; enzyme 0.06-0.5 μM, inhibitor 0.25-42 μM, 9% DMSO, 25° C.; NI = no inhibition
mast cell tryptase = mast cell tryptase (Homo sapiens, UniProt Q15661); assay: Inactivation rate of mast cell tryptase, incubation method; settings: Table III; enzyme 0.06-0.5 μM, inhibitor 0.25-42 μM, 9% DMSO, 25° C.; NI = no inhibition
Method in brief: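 Incubation method at 25 °C: 0.07 μM tryptase with 20–66 μM inhibitor in Hepes pH 7.5 containing heparin, glycerol and DMSO. Aliquots were withdrawn at intervals for residual activity on Z-Arg-SBzl or Z-Lys-SBzl with DTNB. Pseudo-first-order kobs came from ln(vt/v0) versus time.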

[3] = Table III, enzyme 0.06-0.5 μM, inhibitor 0.25-42 μM, 9% DMSO

mast cell tryptase, sequence (Q15661 31-275): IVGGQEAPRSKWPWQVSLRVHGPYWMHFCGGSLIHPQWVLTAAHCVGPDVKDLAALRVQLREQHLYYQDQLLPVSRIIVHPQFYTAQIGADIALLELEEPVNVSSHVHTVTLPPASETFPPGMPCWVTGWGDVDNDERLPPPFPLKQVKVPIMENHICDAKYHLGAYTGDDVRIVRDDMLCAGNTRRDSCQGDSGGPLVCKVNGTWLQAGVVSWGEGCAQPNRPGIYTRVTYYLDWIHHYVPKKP
T4 sequence (P00747 581-810 limits assumed, species assumed): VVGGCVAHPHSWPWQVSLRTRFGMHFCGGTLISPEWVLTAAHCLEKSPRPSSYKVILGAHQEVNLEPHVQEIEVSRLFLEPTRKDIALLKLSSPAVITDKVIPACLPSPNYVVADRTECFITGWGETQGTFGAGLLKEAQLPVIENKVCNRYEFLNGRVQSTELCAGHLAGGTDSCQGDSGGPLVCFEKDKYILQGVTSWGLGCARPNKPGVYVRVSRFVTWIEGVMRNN
T4 sequence (P00747 97-580 partner limits assumed, species assumed): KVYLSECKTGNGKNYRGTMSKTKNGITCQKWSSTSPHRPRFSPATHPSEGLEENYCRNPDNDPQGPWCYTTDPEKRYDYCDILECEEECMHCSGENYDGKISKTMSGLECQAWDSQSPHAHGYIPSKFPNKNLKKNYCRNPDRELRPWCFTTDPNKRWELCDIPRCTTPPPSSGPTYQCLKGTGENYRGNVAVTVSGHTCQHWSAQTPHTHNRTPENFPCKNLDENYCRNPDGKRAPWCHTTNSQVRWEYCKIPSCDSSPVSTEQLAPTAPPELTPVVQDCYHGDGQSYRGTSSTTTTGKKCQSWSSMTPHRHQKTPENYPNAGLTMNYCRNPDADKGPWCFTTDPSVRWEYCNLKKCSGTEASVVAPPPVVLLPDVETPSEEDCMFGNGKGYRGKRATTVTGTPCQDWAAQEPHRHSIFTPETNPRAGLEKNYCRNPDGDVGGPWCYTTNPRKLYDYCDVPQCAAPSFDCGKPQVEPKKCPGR
T3 sequence (P00742 235-488 limits assumed): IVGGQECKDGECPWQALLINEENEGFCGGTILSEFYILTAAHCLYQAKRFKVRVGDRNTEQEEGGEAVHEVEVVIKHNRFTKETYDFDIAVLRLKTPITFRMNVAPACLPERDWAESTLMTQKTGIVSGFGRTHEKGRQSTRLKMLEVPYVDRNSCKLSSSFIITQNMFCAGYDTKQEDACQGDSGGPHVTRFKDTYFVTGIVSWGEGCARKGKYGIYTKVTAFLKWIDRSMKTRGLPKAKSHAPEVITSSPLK
T3 sequence (P00742 41-179 partner limits assumed): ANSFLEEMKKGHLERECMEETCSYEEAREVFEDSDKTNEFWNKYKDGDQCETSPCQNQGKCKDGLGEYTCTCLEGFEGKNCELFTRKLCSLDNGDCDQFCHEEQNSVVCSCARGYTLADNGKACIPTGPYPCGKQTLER

Row | Molecule | kobs /[I] bovine trypsin (bovine trypsin [1]) | kobs /[I] human thrombin (human thrombin; Table II, 0.07 μM thrombin, 0.25-42 μM inhibitor, 80 mM Hepes pH 7.5, 428 mM NaCl, 8% DMSO) | kobs /[I] factor Xa (factor Xa) [M⁻¹ s⁻¹] | kobs /[I] urokinase (urokinase) [M⁻¹ s⁻¹] | kobs /[I] human thrombin (human thrombin; [3]) | kobs /[I] plasmin (plasmin) [M⁻¹ s⁻¹] | kobs /[I] bovine trypsin (bovine trypsin [2]) | kobs /[I] mast cell tryptase (mast cell tryptase) | % Inh plasmin (plasmin; inhibitor concentration of 0.24 mM) [%]
1 | CC(C)CC(NC(=O)OC(C)(C)C)C(=O)NCC(=O)NC(c1ccc(C(=N)N)cc1)P(=O)(Oc1ccccc1)Oc1ccccc1 (mixture of isomers) [Boc--D--Leu--Gly-(4-AmPhGly)^P (OPh)2] | 2,960 ± 300 M^-1 s^-1 | 1,187 ± 76 M^-1 s^-1 | 10 ± 0.4 | – | – | – | – | – | –
2 | CC(C)(C)OC(=O)NC(Cc1ccccc1)C(=O)N1CCCC1C(=O)NC(CCCCN)P(=O)(Oc1ccccc1)Oc1ccccc1 (mixture of isomers) [Boc--D--Phe--Pro--Lys^P (OPh)2] | – | – | – | 38 ± 3 | 9,364 ± 110 M^-1 s^-1 | 51 ± 4 | 28,840 ± 1,800 M^-1 s^-1 | 68 ± 4 M⁻¹ s⁻¹ | –
3 | CC(O)C(NC(=O)OCc1ccccc1)C(=O)NC(CCCCN)P(=O)(Oc1ccccc1)Oc1ccccc1 (mixture of isomers) [Cbz--Thr--Lys^P (OPh)2] | – | – | – | 0.7 ± 0.1 | – | – | 230 M⁻¹ s⁻¹ | 7 ± 1 M⁻¹ s⁻¹ | –
4 | NCCCCCC(NC(=O)C1CCCN1C(=O)C(N)Cc1ccccc1)P(=O)(Oc1ccccc1)Oc1ccccc1 (mixture of isomers) [D--Phe--Pro-HomoLys^P (OPh)2] | – | – | – | 7.8 ± 0.0 | 1,342 ± 272 M^-1 s^-1 | – | 164 ± 14 M⁻¹ s⁻¹ | 4.1 0.2 M^-1 s^-1 | –
5 | NCCCCC(NC(=O)C1CCCN1C(=O)CNS(=O)(=O)Cc1ccccc1)P(=O)(Oc1ccccc1)Oc1ccccc1 (mixture of isomers) [PhCH2 SO2 --Gly--Pro--Lys^P (OPh)2] | – | – | – | 39 ± 2 | 649 ± 14 M⁻¹ s⁻¹ | 13 ± 1 | 12,472 ± 1,400 M^-1 s^-1 | 24 ± 0 M⁻¹ s⁻¹ | –
6 | NCCCCCC(NC(=O)C1CCCN1C(=O)CNS(=O)(=O)Cc1ccccc1)P(=O)(Oc1ccccc1)Oc1ccccc1 (mixture of isomers) [PhCH2 SO2 Gly--Pro-HomoLys^P (OPh)2] | – | – | – | 38 ± 3 | 137 ± 12 M⁻¹ s⁻¹ | 8.4 ± 0.2 | 528 ± 59 M⁻¹ s⁻¹ | 32 ± 2 M⁻¹ s⁻¹ | –
7 | Cl.NCCCCC(NC(=O)[C@@H]1CCCN1C(=O)c1ccccc1Oc1ccccc1)P(=O)(Oc1ccccc1)Oc1ccccc1 (stereo partly drawn) [2-Phenoxybenzoyl-Pro--Lys^P (OPh)2, Diphenyl 1-(N-(2-Phenoxybenzoylprolyl)amino)-5-aminopentanephosphonate Hydrochloride] | – | – | – | 0.6 ± 0.1 | 4,531 ± 140 M^-1 s^-1 | 7.1 ± 0.2 | 16,411 ± 460 M^-1 s^-1 | 19 ± 1 M⁻¹ s⁻¹ | –
8 | Cl.NCCCCCC(NC(=O)[C@@H]1CCCN1C(=O)c1ccccc1Oc1ccccc1)P(=O)(Oc1ccccc1)Oc1ccccc1 (stereo partly drawn) [2-Phenoxybenzoyl-Pro-HomoLys^P (OPh)2, Diphenyl 1-(N-(2-Phenoxybenzoylprolyl)amino)-6-aminohexanephosphonate Hydrochloride] | – | – | – | 24 ± 4 | 57 ± 5 M⁻¹ s⁻¹ | 3.6 ± 0.4 | 69 ± 13 M⁻¹ s⁻¹ | 7.7 ± 0.3 M⁻¹ s⁻¹ | –
9 | NCCCCC(NC(=O)[C@@H]1CCCN1C(=O)CC(c1ccccc1)c1ccccc1)P(=O)(Oc1ccccc1)Oc1ccccc1 (stereo partly drawn) [3,3-Diphenylpropanoyl-Pro--Lys^P (OPh)2] | – | – | – | 1.5 ± 0.0 | 27,450 ± 803 M^-1 s^-1 | 7.0 ± 0.2 | 14,447 ± 905 M^-1 s^-1 | 74 ± 9 M⁻¹ s⁻¹ | –
10 | NCCCCCC(NC(=O)[C@@H]1CCCN1C(=O)CC(c1ccccc1)c1ccccc1)P(=O)(Oc1ccccc1)Oc1ccccc1 (stereo partly drawn) [3,3-Diphenylpropanoyl-Pro-HomoLys^P (OPh)2] | – | – | – | 2.1 ± 0.2 | 224 ± 8 M⁻¹ s⁻¹ | – | 16 ± 1 M⁻¹ s⁻¹ | 1.1 ± 0.0 M⁻¹ s⁻¹ | 50
11 | Cl.NCCCCC(NC(=O)[C@@H]1CCCN1C(=O)c1cccc(Oc2ccccc2)c1)P(=O)(Oc1ccccc1)Oc1ccccc1 (stereo partly drawn) [3-Phenoxybenzoyl-Pro--Lys^P (OPh)2, Diphenyl 1-(N-(3-Phenoxybenzoylprolyl)amino)-5-aminopentanephosphonate Hydrochloride] | – | – | – | 1.6 ± 0.1 | 1,142 ± 52 M^-1 s^-1 | 7.4 ± 0.6 | 19,380 ± 300 M^-1 s^-1 | 16 ± 1 M⁻¹ s⁻¹ | –
12 | Cl.NCCCCCC(NC(=O)[C@@H]1CCCN1C(=O)c1cccc(Oc2ccccc2)c1)P(=O)(Oc1ccccc1)Oc1ccccc1 (stereo partly drawn) [3-Phenoxybenzoyl-Pro-HomoLys^P (OPh)2, Diphenyl 1-(N-(3-Phenoxybenzoylprolyl)amino)-6-aminohexanephosphonate Hydrochloride] | – | – | – | 22 ± 1 | 27 ± 5 M⁻¹ s⁻¹ | 4.6 ± 0.1 | 116 ± 34 M⁻¹ s⁻¹ | 10 ± 3 M⁻¹ s⁻¹ | –
13 | Cl.NCCCCC(NC(=O)OCc1ccccc1)P(=O)(Oc1ccccc1)Oc1ccccc1 (stereo not drawn) [Cbz--Lys^P (OPh)2, Diphenyl N-(N-Benzyloxycarbonyl)amino(4-aminobutyl)methanephosphonate Hydrochloride] | – | – | – | 15 ± 2 | 17 M⁻¹ s⁻¹ | 8.2 ± 0.4 | 6,235 M^-1 s^-1 | 17 ± 1 M⁻¹ s⁻¹ | –
14 | Diphenyl N-(N-Benzyloxycarbonyl)amino(6-aminohexyl)methanephosphonate [Cbz-HomoLys^P (OPh)2] | – | – | – | 1.0 ± 0.0 | – | – | 21 ± 6 M⁻¹ s⁻¹ | 0.7 M⁻¹ s⁻¹ | –
